Laboratory results taken from PubChem BioAssay (NCI).
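48-hour exposure; five concentrations; linearly interpolated endpoints. TGI: total growth inhibition.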

Tests used:
Experiment in all cases: growth of human tumour cells (NCI), 48 h
NCI-H226 lung = system: NCI-H226 lung
LOX IMVI melanoma = system: LOX IMVI melanoma
K-562 leukemia = system: K-562 leukemia
U251 CNS = system: U251 CNS
OVCAR-4 ovarian = system: OVCAR-4 ovarian
A498 renal = system: A498 renal
HOP-62 NSCLC = system: HOP-62 NSCLC
NCI-H23 lung = system: NCI-H23 lung
TK-10 renal = system: TK-10 renal
SW-620 colon = system: SW-620 colon
RPMI-8226 leukemia = system: RPMI-8226 leukemia
UACC-257 melanoma = system: UACC-257 melanoma
CAKI-1 renal = system: CAKI-1 renal
SF-295 CNS = system: SF-295 CNS

Row | Compound | TGI (NCI-H226 lung) | TGI (LOX IMVI melanoma) | TGI (K-562 leukemia) | TGI (U251 CNS) | TGI (OVCAR-4 ovarian) | TGI (A498 renal) | TGI (HOP-62 NSCLC) | TGI (NCI-H23 lung) | TGI (TK-10 renal) | TGI (SW-620 colon) | TGI (RPMI-8226 leukemia) | TGI (UACC-257 melanoma) | TGI (CAKI-1 renal) | TGI (SF-295 CNS)
1 | Cc1csc2c(=O)n(C3OC(CO)C(O)C3O)c(=O)[nH]c12 (stereo not given) | > 100 µM | > 100 µM | > 100 µM | > 100 µM | > 100 µM | > 100 µM | > 100 µM | > 100 µM | > 100 µM | > 100 µM | > 100 µM | > 100 µM | > 100 µM | > 100 µM
2 | O=C1CCC2C(O)c3cc4c(cc3C(c3ccc5c(c3)OCO5)N12)OCO4 (stereo not given) | > 100 µM | > 100 µM | > 100 µM | 60.9 µM | > 100 µM | > 100 µM | 63.7 µM | > 100 µM | > 100 µM | > 100 µM | > 100 µM | > 100 µM | > 100 µM | > 100 µM
3 | [N-]=[N+]=Nc1ccccc1C(=O)N1C(=O)c2ccccc2C(=O)N(C(=O)c2ccccc2N=[N+]=[N-])c2ccccc21 | > 100 µM | > 100 µM | > 100 µM | > 100 µM | > 100 µM | > 100 µM | 81 µM | > 100 µM | > 100 µM | > 100 µM | > 100 µM | > 100 µM | > 100 µM | > 100 µM
4 | O=C1c2cc(Cl)ccc2-n2cnnc2C2CSCN12 (stereo not given) | > 100 µM | > 100 µM | > 100 µM | > 100 µM | > 100 µM | > 100 µM | > 100 µM | – | > 100 µM | > 100 µM | > 100 µM | > 100 µM | 46 µM | > 100 µM
5 | Cc1csc2[n+]1C(=O)/C(=C\c1ccc([N+](=O)[O-])cc1)S2 | 26.9 µM | 60.4 µM | > 100 µM | 45.7 µM | > 100 µM | 45.5 µM | 82.2 µM | 48.6 µM | 58.8 µM | > 100 µM | > 100 µM | > 100 µM | 56.4 µM | 65.1 µM
6 | CCOC(CN(C)C(=O)Nc1cccc2ccccc12)OCC | > 10 µM | > 10 µM | > 10 µM | > 10 µM | > 10 µM | > 10 µM | > 10 µM | > 10 µM | > 10 µM | > 10 µM | > 10 µM | > 10 µM | > 10 µM | > 10 µM
7 | Cc1ccc2c(c1)[nH]c(=S)n2/C=C1\C(=O)Oc2ccccc2C1=O | > 100 µM | > 100 µM | > 100 µM | > 100 µM | > 100 µM | > 100 µM | > 100 µM | > 100 µM | > 100 µM | > 100 µM | > 100 µM | > 100 µM | > 100 µM | > 100 µM
8 | COC(=O)/C=C(/C)n1nc2ccccc2n1 | > 100 µM | – | > 100 µM | > 100 µM | > 100 µM | > 100 µM | > 100 µM | > 100 µM | > 100 µM | > 100 µM | > 100 µM | > 100 µM | > 100 µM | > 100 µM
